Results as given in patent EP4467137A1, “TREATMENT OF FRONTOTEMPORAL DEMENTIA OR FRONTOTEMPORAL LOBAR DEMENTIA” (Universidad Autónoma de Madrid, priority 2023, dated 2024).

Experiments:
[1] = tested on: mouse cytokines, chemokines, and growth factors; assay: LPS in vivo model: multiplex assay of brain cytokines and chemokines (Luminex xMAP); details: 20 mg·kg^-1 i.p.
Method: • Figure 1. Compound 1 reduces the inflammatory response against LPS in vitro. (A) Nitric oxide (NO) production in BV2 cells detected by DAF 24 h after LPS exposure and normalized by cell viability measured by MTT (n = 9). (B) qRT-PCR of TNFα (n = 9) in BV2 cells after 24 h LPS exposure. Sulforaphane (Sfn) was used as a positive control. […] Compound 1 decreases the inflammatory process 4 and 24 hours after LPS administration in vivo. Compound 1 (20 mg·kg^-1) daily was injected i.p. four days before the i.p. LPS (0.5 mg·kg^-1) administration. […] Compound 1 ameliorates the resolution of the inflammatory process triggered by LPS. Multiplex assay of cytokines 4 h (A) and 24 h (B) after the proinflammatory stimuli (n = 5). […] Compound 1 reverts brain microgliosis triggered by LPS. Representative images of brain microglia 4 h and 24 h after the proinflammatory stimuli (A). Mean intensity of IBA-1 per cell 4 h (n = 10) and 24 h (n = 7, except n = 6 LPS + Compound 1) after LPS injection (B). […] Sub-chronical Compound 1 administration improves behavioural parameters in LPS treated mice. Compound 1 (20 mg·kg^-1) was injected once a day via i.p. four days before the i.p. LPS (0.5 mg·kg^-1) administration, thereafter behavioural tests were conducted. (A) Mice weight change (T0 and T24: saline n = 17, LPS n = 17, LPS + Compound 1 n = 19, T4 and T8 saline n = 8, LPS n = 7, LPS + Compound 1 n = 8). (B) Locomotion activity measured by line crossings of an imaginary grid. (C) Scheme of NOR test. (D) Discrimination index (DI) of the mice studied: saline (n = 16), LPS (n = 9) and LPS + Compound 1 (n = 13). […] Compound 1 reduces hyperphosphorylated tau species and tau seeding in vitro. Compound 1 reduces hyperphosphorylated tau levels (AT8) in primary neuronal cultures of mice after 8 days of AVV-hTauP301L treatment. Dimethyl fumarate was used as a positive control (DMF). (A) Representative images, AT8 is shown in green and Map2, marker of neurons, is shown in white. […] Compound 1 reduced tau seeding in HEK-293 tau FRET biosensor measured by flow cytometer (C). Tg4510 mouse brain homogenate was used as aggregant stimuli. […] Data represent mean ± SEM. • Figure 7. Compound 1 reduces hyperphosphorylated tau species in adult mice with hTauP301L tauopathy after 35 days oral administration (50 mg/kg/day). (A). Representative images of hyperphosphorylated tau intensity measured by AT8 and AT180 antibodies in three different regions of the hippocampus (GD, CA3 and CA1) (n = 11-12). (B) Quantification AT8 intensity, normalized to CA3 intensity of Sham animals. (C) Quantification of AT180 intensity, normalized to CA3 intensity of Sham animals (n = 9-12). […] Compound 1 reduces insoluble forms of hyperphosphorylated tau species in adult mice with hTauP301L tauopathy after 35 days oral administration (50 mg/kg/day). (A). Representative images of WB against AT8 and (B) AT180 antibodies of sarkosyl solule and insoluble protein species. Quantification of sarkosyl soluble (n = 10) (C) and insoluble species (D) using AT8 antibody (n = 10). Quantification of sarkosyl soluble (n = 10) (E) and insoluble species (F) using AT180 antibody (n = 10). […] Compound 1 prevents cognitive decline in spatial memory behavioural paradigms in adult mice with hTauP301L tauopathy after 35 days oral administration (20 mg/kg or 50 mg/kg/day). (A) Representation of T-maze alternation test and (B) Object Location test (OLT). (C) Average percentage of success in seven independent attempts (n = 14-19). (D) Discrimination index in the OLT assay (AAV-eGFP, n = 15; AAV-hTau, n = 10; AAV-hTau + Compound 1 at 20 mg/kg, n = 5; AAV-hTau + Compound 1 at 50 mg/kg, n = 8). […] Compound 1 reduces hyperphosphorylated tau species and improves cognitive behaviour in aged (16-18 months old) mice with hTauP301L tauopathy after 35 days oral administration (50 mg/kg/day). (A). Representative images of hyperphosphorylated tau intensity measured by AT8 and AT180 antibodies in three different regions of the hippocampus (GD, CA3 and CA1) (n = 12). […]

BV2 cells = assay: Nitric oxide detection with DAF in LPS-exposed BV2 cells; assay type: cell-based, mouse; details: 24 h LPS
Method: • Figure 1. Compound 1 reduces the inflammatory response against LPS in vitro. (A) Nitric oxide (NO) production in BV2 cells detected by DAF 24 h after LPS exposure and normalized by cell viability measured by MTT (n = 9). (B) qRT-PCR of TNFα (n = 9) in BV2 cells after 24 h LPS exposure. Sulforaphane (Sfn) was used as a positive control. […] Compound 1 decreases the inflammatory process 4 and 24 hours after LPS administration in vivo. Compound 1 (20 mg·kg^-1) daily was injected i.p. four days before the i.p. LPS (0.5 mg·kg^-1) administration. […] Compound 1 ameliorates the resolution of the inflammatory process triggered by LPS. […] (B) Locomotion activity measured by line crossings of an imaginary grid. […] Compound 1 reduced tau seeding in HEK-293 tau FRET biosensor measured by flow cytometer (C). […] Representative images of hyperphosphorylated tau intensity measured by AT8 and AT180 antibodies in three different regions of the hippocampus (GD, CA3 and CA1) (n = 11-12). (B) Quantification AT8 intensity, normalized to CA3 intensity of Sham animals. (C) Quantification of AT180 intensity, normalized to CA3 intensity of Sham animals (n = 9-12). […] Quantification of sarkosyl soluble (n = 10) (C) and insoluble species (D) using AT8 antibody (n = 10). Quantification of sarkosyl soluble (n = 10) (E) and insoluble species (F) using AT180 antibody (n = 10). […]

[2] = target: T1, human lipoxygenase-5 (hLOX-5) (Homo sapiens, UniProt P09917); assay: Inhibition of human lipoxygenase-5; assay type: biochemical; details: mean ± SD of three independent experiments in triplicate; read-out: LOX5 IC50
T1 sequence (P09917 1-674): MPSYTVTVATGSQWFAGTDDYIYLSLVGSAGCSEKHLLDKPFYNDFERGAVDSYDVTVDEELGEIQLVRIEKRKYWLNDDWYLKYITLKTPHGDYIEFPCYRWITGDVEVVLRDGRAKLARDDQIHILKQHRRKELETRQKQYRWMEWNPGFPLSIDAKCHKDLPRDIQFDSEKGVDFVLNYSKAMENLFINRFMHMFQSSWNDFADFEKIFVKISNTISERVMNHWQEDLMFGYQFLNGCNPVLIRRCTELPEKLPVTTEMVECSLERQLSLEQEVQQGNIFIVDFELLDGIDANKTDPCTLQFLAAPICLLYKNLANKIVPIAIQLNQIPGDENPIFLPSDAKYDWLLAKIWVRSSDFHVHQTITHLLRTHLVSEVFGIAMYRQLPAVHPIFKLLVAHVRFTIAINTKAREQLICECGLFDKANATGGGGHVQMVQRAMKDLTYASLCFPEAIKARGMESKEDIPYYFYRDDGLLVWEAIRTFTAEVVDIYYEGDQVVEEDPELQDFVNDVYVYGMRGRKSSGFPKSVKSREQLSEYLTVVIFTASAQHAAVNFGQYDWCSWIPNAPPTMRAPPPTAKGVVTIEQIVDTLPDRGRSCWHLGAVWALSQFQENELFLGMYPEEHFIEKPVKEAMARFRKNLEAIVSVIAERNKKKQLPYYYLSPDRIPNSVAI
Method: The inhibition of human lipoxygenase-5 (hLOX-5) was performed as described [Herrera-Arozamena, Clara et al. "Tuning melatonin receptor subtype selectivity in oxadiazolone-based analogues: Discovery of QR2 ligands and NRF2 activators with neurogenic properties." European journal of medicinal chemistry vol. 190 (2020): 112090. doi:10.1016/j.ejmech.2020.112090], Data are the mean ± SD of three independent experiments performed in triplicate.

COc1ccc2c(c1)CC(c1c[nH]c3ccc(OC)cc13)N2 (centres unmarked) [Compound 1, 5-Methoxy-3-(5-methoxyindolin-2-yl)-1H-indole]
IP10 ([1]; 4 and 24 h after LPS): decreased significantly
KC ([1]; 4 and 24 h after LPS): decreased significantly
MIP2 ([1]; 4 and 24 h after LPS): decreased significantly
RANTES ([1]; 4 and 24 h after LPS): decreased significantly
IL-6 in brain ([1]; 4 h after LPS): marked reduction
IL-7 in brain ([1]; 4 h after LPS): marked reduction
MCP-1 ([1]; 4 h after LPS): decreased significantly
Additional cytokines (Figure 3) ([1]; 4 h and 24 h after LPS, most of them): decreased with compound treatment
IL-6 in brain ([1]; 24 h after LPS): restored to basal conditions
IL-7 in brain ([1]; 24 h after LPS): restored to basal conditions
granulocyte-colony stimulating factor (G-CSF) brain levels ([1]; after LPS): significantly reduced
NO production (BV2 cells; 10 µM, BV2 cells): reduced to basal levels
nitric oxide (NO) in BV2 cells exposed to LPS (BV2 cells; over the concentrations tested): concentration-dependent reduction
IC50 [2]: 3.08 ± 0.29 µM
